Patent US6626122B2, “Deactivatable biocides in ballast water” (Chevron U.S.A. Inc, priority 2001, dated 2003)
Converted amounts (≈) assume the structure as drawn.

Experiments:
[1] = tested on: bacterial inoculum; assay: Evaluation of biocides: inhibition of growth on FT diesel and ALAD diesel; assay type: cell-based, alkane degrading organisms; as to Growth, Test Results on ALAD Diesel Fuel: key: −: No Growth; +: Growth (White Unless Otherwise Indicated); as to Growth, Test Results on Fischer-Tropsch Diesel Fuel: key: −: No Growth; +: Growth (White Unless Otherwise Indicated)
Procedure: The ability of biocides to inhibit growth on a FT diesel and a low aromatics diesel fuel from Example 1 was investigated.
Test Conditions: 90 ml of growth media and 10 ml of either FT diesel or low sulfur (ALAD) diesel was added to 250 ml flasks. […] In addition to the 2 alkynes, glutaraldehyde (glutaric dialdehyde 50%), was tested. The following summarizes the test conditions:
100 ppm inhibitor (on a total test volume basis or 1000 ppm in diesel)
1% inhibitor (on a total test volume basis or 10% in diesel).
After inoculation, the flasks were place on a shaker-table (135 rpm) at room temperature and observed daily.

[2] = tested on: Larval Sheepshead Minnow (Cyprinodon variegatus); assay: in vivo; conditions: Cyprinodon variegatus (sheepshead minnow), 96 h
Procedure: (§1) […]. EPA/600/4-90/027F Washington, D.C.) conducted at Pacific Eco-Risk Laboratories, Martinez, Calif.
(§2) LOEC is the Lowest Observable Effect Concentration and is defined as the minimum concentration where mortality is observed for the test species. […] LC-50, the concentration that will cause mortality of 50% of the organisms tested within 96 h, is a calculated value based on all observations.
(§3) The solutions were mixed for 48 hours prior to the start of the bioassays. The solutions were diluted to perform bioassays at starting glutaraldehyde concentrations of 100, 50, 37.5, 25, and 10.5 mg/L. The results are summarized in Table X.

[3] = in vivo; conditions: Cyprinodon variegatus (sheepshead minnow, larval)
Procedure: as §1, §2, §3

[4] = tested on: bacterial inoculum; assay: Neutralization of biocides with monoethanolamine; assay type: cell-based; conditions: for Growth, Neutralization of Biocides with MEA: minimal media:FT diesel 10:1; for onset of microbial growth (delayed from 3 days): no MEA
Procedure: In all experiments, a 10:1 ratio of minimal media to Fischer-Tropsch diesel fuel were prepared and evaluated in 250 ml flasks.
In addition to these experiments, several controls were run without Glutaraldehyde as follows: […]

O=CCCCC=O [G, glutaraldehyde]
effectiveness as biocide (inhibits microbial growth) ([1]; ALAD diesel fuel): effective at a lower concentration
Growth, Test Results on Fischer-Tropsch Diesel Fuel ([1]; FT Diesel + 1 Wt % biocide, Day 0): −
Growth, Test Results on Fischer-Tropsch Diesel Fuel ([1]; FT Diesel + 1 Wt % biocide, Day 1): −
Growth, Test Results on Fischer-Tropsch Diesel Fuel ([1]; FT Diesel + 1 Wt % biocide, Day 5): −
Growth, Test Results on Fischer-Tropsch Diesel Fuel ([1]; FT Diesel + 1 Wt % biocide, Day 7): −
Growth, Test Results on Fischer-Tropsch Diesel Fuel ([1]; FT Diesel + 1 Wt % biocide, Day 8): −
Growth, Test Results on Fischer-Tropsch Diesel Fuel ([1]; FT Diesel + 1 Wt % biocide, Day 19): −
Growth, Test Results on Fischer-Tropsch Diesel Fuel ([1]; FT Diesel + 100 ppm biocide, Day 0): −
Growth, Test Results on Fischer-Tropsch Diesel Fuel ([1]; FT Diesel + 100 ppm biocide, Day 1): −
Growth, Test Results on Fischer-Tropsch Diesel Fuel ([1]; FT Diesel + 100 ppm biocide, Day 5): −
Growth, Test Results on Fischer-Tropsch Diesel Fuel ([1]; FT Diesel + 100 ppm biocide, Day 7): −
Growth, Test Results on Fischer-Tropsch Diesel Fuel ([1]; FT Diesel + 100 ppm biocide, Day 8): −
Growth, Test Results on Fischer-Tropsch Diesel Fuel ([1]; FT Diesel + 100 ppm biocide, Day 19): +
effectiveness as biocide (inhibits microbial growth) ([1]; Fischer-Tropsch diesel fuel): effective at a lower concentration
Growth, Test Results on ALAD Diesel Fuel ([1]; LA Diesel + 1 Wt % biocide, Day 0): −
Growth, Test Results on ALAD Diesel Fuel ([1]; LA Diesel + 1 Wt % biocide, Day 1): −
Growth, Test Results on ALAD Diesel Fuel ([1]; LA Diesel + 1 Wt % biocide, Day 5): −
Growth, Test Results on ALAD Diesel Fuel ([1]; LA Diesel + 1 Wt % biocide, Day 7): −
Growth, Test Results on ALAD Diesel Fuel ([1]; LA Diesel + 1 Wt % biocide, Day 8): −
Growth, Test Results on ALAD Diesel Fuel ([1]; LA Diesel + 1 Wt % biocide, Day 19): −
Growth, Test Results on ALAD Diesel Fuel ([1]; LA Diesel + 100 ppm biocide, Day 0): −
Growth, Test Results on ALAD Diesel Fuel ([1]; LA Diesel + 100 ppm biocide, Day 1): −
Growth, Test Results on ALAD Diesel Fuel ([1]; LA Diesel + 100 ppm biocide, Day 5): −
Growth, Test Results on ALAD Diesel Fuel ([1]; LA Diesel + 100 ppm biocide, Day 7): −
Growth, Test Results on ALAD Diesel Fuel ([1]; LA Diesel + 100 ppm biocide, Day 8): −
Growth, Test Results on ALAD Diesel Fuel ([1]; LA Diesel + 100 ppm biocide, Day 19): −
LOEC [2]: 25 mg/L
NOEC [2]: 13 mg/L
LC50 at 96 h ([3]; 96 h, control experiment, separate compounds): 26 µg/mL (≈ 260 µM)
LC50 at 96 h ([3]; second experiment, as starting glutaraldehyde concentration, solutions mixed for 48 hours prior to bioassay): 25 µg/mL (≈ 250 µM)
Growth, Neutralization of Biocides with MEA ([4]; 1 ppm G, Time 0 days): −
Growth, Neutralization of Biocides with MEA ([4]; 1 ppm G, Time 1 days): −
Growth, Neutralization of Biocides with MEA ([4]; 1 ppm G, Time 2 days): −
Growth, Neutralization of Biocides with MEA ([4]; 1 ppm G, Time 3 days): −
Growth, Neutralization of Biocides with MEA ([4]; 1 ppm G, Time 7 days): −
Growth, Neutralization of Biocides with MEA ([4]; 1 ppm G, Time 9 days): +
Growth, Neutralization of Biocides with MEA ([4]; 1 ppm G, Time 14 days): +
onset of microbial growth (delayed from 3 days) ([4]; 1 ppm of glutaraldehyde): 9 days
Growth, Neutralization of Biocides with MEA ([4]; 10 ppm G, Time 0 days): −
Growth, Neutralization of Biocides with MEA ([4]; 10 ppm G, Time 1 days): −
Growth, Neutralization of Biocides with MEA ([4]; 10 ppm G, Time 2 days): −
Growth, Neutralization of Biocides with MEA ([4]; 10 ppm G, Time 3 days): −
Growth, Neutralization of Biocides with MEA ([4]; 10 ppm G, Time 7 days): −
Growth, Neutralization of Biocides with MEA ([4]; 10 ppm G, Time 9 days): −
Growth, Neutralization of Biocides with MEA ([4]; 10 ppm G, Time 14 days): −
onset of microbial growth (delayed from 3 days) ([4]; 10 ppm of glutaraldehyde): more than 14 days
Growth, Neutralization of Biocides with MEA ([4]; 100 ppm G, Time 0 days): −
Growth, Neutralization of Biocides with MEA ([4]; 100 ppm G, Time 1 days): −
Growth, Neutralization of Biocides with MEA ([4]; 100 ppm G, Time 2 days): −
Growth, Neutralization of Biocides with MEA ([4]; 100 ppm G, Time 3 days): −
Growth, Neutralization of Biocides with MEA ([4]; 100 ppm G, Time 7 days): −
Growth, Neutralization of Biocides with MEA ([4]; 100 ppm G, Time 9 days): −
Growth, Neutralization of Biocides with MEA ([4]; 100 ppm G, Time 14 days): −
